# Measured values as given in PMC2824606 (Molecular cell, 2010).
# Biological target: yHsp90 (yeast Hsp90, Hsp82) (Saccharomyces cerevisiae, UniProt P02829)
# Experiment: Kd determination
# Assay type: binding
# Sequence of yHsp90 (yeast Hsp90, Hsp82) (P02829 whole entry): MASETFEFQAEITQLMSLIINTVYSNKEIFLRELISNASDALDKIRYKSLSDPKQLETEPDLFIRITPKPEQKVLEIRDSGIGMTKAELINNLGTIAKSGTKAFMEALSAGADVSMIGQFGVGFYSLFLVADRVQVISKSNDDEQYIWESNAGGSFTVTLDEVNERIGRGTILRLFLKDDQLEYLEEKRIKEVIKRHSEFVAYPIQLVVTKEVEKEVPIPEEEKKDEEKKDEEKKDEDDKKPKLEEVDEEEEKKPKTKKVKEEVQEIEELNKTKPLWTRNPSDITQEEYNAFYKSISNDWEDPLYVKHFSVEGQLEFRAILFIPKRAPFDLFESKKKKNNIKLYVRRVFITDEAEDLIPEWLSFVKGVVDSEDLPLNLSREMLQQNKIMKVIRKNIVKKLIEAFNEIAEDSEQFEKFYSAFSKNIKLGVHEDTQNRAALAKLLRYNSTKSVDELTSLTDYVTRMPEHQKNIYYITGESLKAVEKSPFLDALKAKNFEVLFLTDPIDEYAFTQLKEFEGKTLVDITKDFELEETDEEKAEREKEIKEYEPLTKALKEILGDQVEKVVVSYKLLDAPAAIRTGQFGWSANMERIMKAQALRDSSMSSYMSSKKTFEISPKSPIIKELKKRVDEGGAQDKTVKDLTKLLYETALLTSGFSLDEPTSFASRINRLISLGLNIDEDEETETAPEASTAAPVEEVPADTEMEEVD
smiles,measurement,value
Nc1ncnc2c1ncn2[C@@H]1O[C@H](CO[P@](=O)(O)O[P@](=O)(O)NP(=O)(O)O)[C@@H](O)[C@H]1O [AMPPNP],Kd,Kd of each protein for AMPPNP is shown in inset.
